Laboratory results as given in patent publication US20090170886A1 (Pfizer Inc, priority 2005, published 2009).
Positions count from the first letter of the chain named. Like-named read-outs stand apart in the source and are kept apart here.

Experiments:
[1] = molecular target: T1, androgen receptor in MDA-MB453-MMTV clone 54-19 cells (Homo sapiens, UniProt P10275); test: AR Antagonist Cell Assay (MMTV-luciferase reporter, DHT-induced); format: cell-based; conditions: MDA-MB453-MMTV clone 54-19, 100 pM DHT, 17 hr; mean of multiple tests
T1 sequence (P10275 1-920 Q868H): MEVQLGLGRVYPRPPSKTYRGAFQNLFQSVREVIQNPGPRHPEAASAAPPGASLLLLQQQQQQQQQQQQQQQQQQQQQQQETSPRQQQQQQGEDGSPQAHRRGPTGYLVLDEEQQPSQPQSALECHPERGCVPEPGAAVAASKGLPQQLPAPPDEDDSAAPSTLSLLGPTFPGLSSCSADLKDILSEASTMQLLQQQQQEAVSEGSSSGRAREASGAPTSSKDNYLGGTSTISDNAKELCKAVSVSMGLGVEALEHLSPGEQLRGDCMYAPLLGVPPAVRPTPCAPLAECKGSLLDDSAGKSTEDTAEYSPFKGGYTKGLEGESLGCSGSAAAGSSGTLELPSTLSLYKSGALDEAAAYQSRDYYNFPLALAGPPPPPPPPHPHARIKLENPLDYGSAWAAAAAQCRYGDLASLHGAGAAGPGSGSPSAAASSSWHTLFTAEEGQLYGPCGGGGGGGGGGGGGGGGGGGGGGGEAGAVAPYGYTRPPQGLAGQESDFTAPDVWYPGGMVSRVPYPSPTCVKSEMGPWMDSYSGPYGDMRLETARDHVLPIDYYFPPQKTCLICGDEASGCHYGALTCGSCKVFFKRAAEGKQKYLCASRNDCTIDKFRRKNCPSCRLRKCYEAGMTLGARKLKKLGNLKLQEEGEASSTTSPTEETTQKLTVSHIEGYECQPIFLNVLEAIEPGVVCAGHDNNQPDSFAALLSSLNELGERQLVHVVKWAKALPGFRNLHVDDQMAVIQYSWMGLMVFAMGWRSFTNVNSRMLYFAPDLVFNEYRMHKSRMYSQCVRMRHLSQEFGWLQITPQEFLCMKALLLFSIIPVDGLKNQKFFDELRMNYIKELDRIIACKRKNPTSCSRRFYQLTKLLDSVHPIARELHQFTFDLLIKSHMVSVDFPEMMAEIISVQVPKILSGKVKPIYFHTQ
Method: The compounds ability to antagonize the effects of androgen on the androgen receptor were determined in a whole cell assay as described immediately below.
Cell line: MDA-MB453-MMTV clone 54-19. This cell line is a stable transfected cell line with MDA-MB453 cell background (a human breast tumor cell line expressing androgen receptor). A MMTV minimal promoter containing ARE was first cloned in front of a firefly luciferase reporter gene. Then the cascade was cloned into transfection vector pUV120puro. Electroporation method was used for transfecting MDA-MB-453 cell. Puromycin resistant stable cell line was selected.
Culture medium: DMEM (high glucose, Gibco cat #: 11960-044), 10% FBS, and 1% L-glutamine
Plating medium: DMEM (phenol red free), 10% charcoal treated HyClone serum, 1% L-glutamine
Assay medium: DMEM (phenol red free), 1% charcoal treated HyClone serum, 1% L-glutamine, and 1% penicillin/streptomycin
3× luciferase buffer: 2% beta-mercaptoethanol, 0.6% ATP, 0.0135% luciferine in cell lysis buffer
Cells are maintained in culture medium, splitting cells when they reach 80-90% confluence. To test compounds, 10,000 cells/well are plated to opaque 96 cell culture plate in 100 ul/well plating medium, culture for overnight at 37° C. in cell culture incubator. Carefully remove plating medium, then add 80 ul/well of pre-warmed assay medium, add 10 ul/well testing compound (final concentration at) 1000 nM, 200 nM, 40 nM, 8 nM, 1.6 nM, and 0.32 nM), incubate at 37° C. for 30 minutes. Add 10 ul/well freshly prepared DHT (final concentration at 100 pM) to each well, incubate at 37° C. for 17 hr (overnight). Add 50 ul/well 3× luciferase buffer, incubate at room temperature for 5 minutes, then count on Luminometer. The fold induction over background by 100 pM DHT in the absence of testing compounds is standardized as 100% and experimental result is expressed as percentage of inhibition by testing compounds.
The results are reported as the mean of multiple tests as described below (the numbers of tests are indicated in the footnote). ND denotes that the compound was not tested.

[2] = molecular target: T2, hAR (human androgen receptor, baculovirus/Sf9 generated extracts) (Homo sapiens, UniProt P10275); test: AR Binding Assay (competitive binding with 3H-DHT tracer); conditions: 1 nM 3H-DHT, one hour at 4° C., mean of multiple tests
T2 construct: made in house; host or cells: baculovirus/Sf9 insect cells (crude extract)
T2 sequence (P10275 1-920): T1 sequence (P10275 1-920 Q868H) with H868Q
Method: The compounds of Formula I have affinity for the androgen receptor. […] The description below describes how the assay was carried out.
Competitive binding analysis was performed on baculovirus/Sf9 generated hAR extracts in the presence or absence of different concentrations of test agent and a fixed concentration of ^3H-dihydrotestosterone (^3H-DHT) as tracer. This binding assay method is a modification of a protocol previously described (Liao S., et. al., J. Steroid Biochem., 20:11-17, 1984). Briefly, progressively decreasing concentrations of compounds are incubated in the presence of hAR extract (Chang et al., P.N.A.S., Vol. 89, pp. 5546-5950, 1992), hydroxylapatite, and 1 nM ^3H-DHT for one hour at 4° C. Subsequently, the binding reactions are washed three times to completely remove excess unbound ^3H-DHT. hAR bound ^3H-DHT levels are determined in the presence of compounds (i.e. competitive binding) and compared to levels bound when no competitor is present (i.e. maximum binding). Compound binding affinity to the hAR is expressed as the concentration of compound at which one half of the maximum binding is inhibited. Table II below provides the results that were obtained for selected compounds (reported data is the mean of multiple tests as shown below).

[3] = hAR extract, read-out: AR Binding IC50

Compound | IC50 [1] | IC50 ([2]; AR Binding IC50, hAR extract) | IC50 [2, 3]
CCC(Oc1ccc(C#N)c(C(F)(F)F)c1)c1ccccc1 (centres unmarked) [Example 48, 4-(1-Phenyl-propoxy)-2-trifluoromethyl-benzonitrile] | 345 nM | 38 nM | –
N#Cc1ccc(OCc2ccccc2)cc1C(F)(F)F [Example 50, 4-Benzyloxy-2-trifluoromethyl-benzonitrile] | 508 nM | – | 174 nM
Cc1cccc(C(C)Oc2ccc(C#N)c(C(F)(F)F)c2)c1 (centres unmarked) [Example 51, 4-(1-m-Tolyl-ethoxy)-2-trifluoromethyl-benzonitrile] | > 1000 nM | 108 nM | –
CC(Oc1ccc(C#N)c(C(F)(F)F)c1)c1ccccc1 (centres unmarked) [Example 53, 4-(1-Phenyl-ethoxy)-2-trifluoromethyl-benzonitrile] | 55 nM | 8 nM | –
CCOc1ccccc1COc1ccc(C#N)c(C(F)(F)F)c1 [Example 55, 4-(2-Ethoxy-benzyloxy)-2-trifluoromethyl-benzonitrile] | > 1000 nM | – | 125 nM
C#CC(Oc1ccc(C#N)c(C(F)(F)F)c1)c1ccccc1 (centres unmarked) [Example 56, 4-(1-Phenyl-prop-2-ynyloxy)-2-trifluoromethyl-benzonitrile] | 20 nM | 74 nM | –
CC(Oc1ccc(C#N)cc1Cl)c1ccccc1 (centres unmarked) [Example 57, 3-Chloro-4-(1-phenyl-ethoxy)-benzonitrile] | 86 nM | 240 nM | –
CCC(C)(Oc1ccc(C#N)c(Cl)c1)c1ccccc1 (centres unmarked) [Example 58, 2-Chloro-4-(1-methyl-1-phenyl-propoxy)-benzonitrile] | > 1000 nM | – | 162 nM
N#Cc1ccc(OCc2ccccc2)cc1Cl [Example 59, 4-Benzyloxy-2-chloro-benzonitrile] | 108 nM | – | 38 nM
Cc1cccc(C(C)Oc2ccc(C#N)c(Cl)c2)c1 (centres unmarked) [Example 60, 2-Chloro-4-(1-m-tolyl-ethoxy)-benzonitrile] | > 1000 nM | 74 nM | –
Cc1ccc(C)c(C(C)Oc2ccc(C#N)c(Cl)c2)c1 (centres unmarked) [Example 61, 2-Chloro-4-[1-(2,5-dimethyl-phenyl)-ethoxy]-benzonitrile] | > 1000 nM | 61 nM | –
Cc1ccccc1C(C)Oc1ccc(C#N)c(Cl)c1 (centres unmarked) [Example 62] | 464 nM | – | 52 nM
Cc1cccc(COc2ccc(C#N)c(Cl)c2)c1 [Example 64, 2-Chloro-4-(3-methyl-benzyloxy)-benzonitrile] | > 1000 nM | 74 nM | –
Cc1ccccc1COc1ccc(C#N)c(Cl)c1 [Example 65, 2-Chloro-4-(2-methyl-benzyloxy)-benzonitrile] | > 1000 nM | – | 129 nM
N#Cc1ccc(OCc2cccc(O)c2)cc1Cl [Example 66, 2-Chloro-4-(3-hydroxy-benzyloxy)-benzonitrile] | 4 nM | 11 nM | –
COc1ccccc1COc1ccc(C#N)c(Cl)c1 [Example 67, 2-Chloro-4-(2-methoxy-benzyloxy)-benzonitrile] | 166 nM | 99 nM | –
CCOc1ccccc1COc1ccc(C#N)c(Cl)c1 [Example 68, 2-Chloro-4-(2-ethoxy-benzyloxy)-benzonitrile] | > 1000 nM | – | 213 nM
N#Cc1ccc(OCC2COc3ccccc3O2)cc1Cl (centres unmarked) [Example 69, 2-Chloro-4-(2,3-dihydro-benzo[1,4]dioxin-2-ylmethoxy)-benzonitrile] | > 1000 nM | – | 108 nM
CC(C)(Oc1ccc(C#N)c(Cl)c1)c1ccccc1 [Example 70, 2-Chloro-4-(1-methyl-1-phenyl-ethoxy)-benzonitrile] | > 1000 nM | 53 nM | –
CC(Oc1ccc(C#N)c(Cl)c1)c1ccccc1 (centres unmarked) [Example 71, 2-Chloro-4-(1-phenyl-ethoxy)-benzonitrile] | 8 nM | 13 nM | –
COc1cc(OCCc2cccc(F)c2)ccc1C#N [Example 71B, 4-[2-(3-Fluoro-phenyl)-ethoxy]-2-methoxy-benzonitrile] | 41.4 nM | – | 155 nM
COc1cncc(C(C)Oc2ccc(C#N)c(C(F)(F)F)c2)c1 (centres unmarked) [Example 72, 4-[1-(5-Methoxypyridin-3-yl)ethoxy]-2-(trifluoromethyl)benzonitrile] | 441 nM | – | 203 nM
CC(Oc1ccc(C#N)c(C(F)(F)F)c1)c1cncc(O)c1 (centres unmarked) [Example 73, 4-[1-(5-Hydroxypyridin-3-yl)ethoxy]-2-(trifluoromethyl)benzonitrile] | 70 nM | – | 110 nM
N#Cc1ccc(CCOc2ccc(C#N)c(C(F)(F)F)c2)cc1 [Example 75, 4-[2-(4-Cyano-phenyl)-ethoxy]-2-trifluoromethyl-benzonitrile] | 55 nM | 343 nM | –
COc1cccc(CCOc2ccc(C#N)c(C(F)(F)F)c2)c1 [Example 77, 4-[2-(3-Methoxy-phenyl)-ethoxy]-2-trifluoromethyl-benzonitrile] | 11 nM | 109 nM | –
